Assay results published in patent US10087173B2, “Substituted aminothiazoles as inhibitors of cancers, including hepatocellular carcinoma, and as inhibitors of hepatitis virus replication” (BARUCH S. BLUMBERG INSTITUTE, priority 2011, dated 2018).
Read-outs that look alike come from different tables or passages of the source.

Key:
Assay type in all cases: cell-based
[1] = MTT cell viability assay, PH5CH cells, 72 h; conditions: human, immortalized normal hepatocytes PH5CH, 0.016-50.0 μM tested
Description: (§1) Huh-7 cells and derived from hepatocellular carcinoma cells, and were donated by Dr. Xuanyong Lu, (Drexel University College of Medicine, Doylestown, Pa.). THLE-2 were purchased from American Type Culture Collection (Manassas, Va.). PH5CH were donated by Dr. Masayuki Noguchi (University of Tsukuba, Ibaraki, Japan). THLE-2 and PH5CH have been immortalized through stable transfection of the SV40 large T antigen in normal hepatocytes, and are thus cell lines that are representative of normal hepatocytes rather than HCC cells. THLE2 have been confirmed to not form tumors in athymic mice. All cell lines were cultured and maintained in 5% CO2 at 37° C. Huh-7 were maintained in the culture media DMEM/F12 (Dulbecco's Modified Eagle Medium) with 10% Fetal bovine serum (FBS), 100 μg/mL penicillin, 100 units/mL streptomycin, and 50 μg/mL normocin. THLE-2 and PH5CH were maintained in the culture media Brochial Epithelial Growth Media (BEGM) with 10% FBS, 100 μg/mL penicillin, 100 units/mL streptomycin, with the following additives form the prepackaged kit: Bovine pituitary extract (BPE), insulin, hydrocortisone, retinoic acid, transferrin, triiodothyronine, supplemented with 5 ng/ml human epidermal growth factor and 70 ng/ml phosphoethanolamine (Lonza Walkersville Inc., Walkersville, Md.).
(§2) Huh7 cells were plated on 96-well plates at 2.0×10^4 cells per well to permit grow in the presence of compounds of the disclosure. Compounds of the disclosure were prediluted and transferred to cell plates by automated liquid handling. Cells were incubated with compounds of the disclosure for 72 hours, after which culture growth and viability were assessed by addition of 50 μg/mL 3-(4,5-Dimethyl-2-thiazolyl)-2,5-diphenyl-2H-tetrazolium bromide (MTT) incubation for 4 hours at 37° C. Solubilization buffer (0.01M HCl, 10% SDS) was added followed by incubation at 37° C. overnight. Absorbance was measured at 570 nm (reference 630 nm). Compound of the disclosure were tested in Huh7, THLE-2 and PH5CH, over eight-point dilutions in half-log steps, testing 50.0, 16.6, 5.0, 1.66, 0.5, 0.166, 0.05, and 0.016 μM in 0.5% DMSO, with each concentration in duplicate wells. […] Each compound was tested from 2 to 7 times in separate assay trials.
(§3) Selectivity of toxicity in HCC-derived cells over normal liver-derived cells is important for the purposes of developing a therapy that specifically targets the cancer with low toxicity for […]. The Selective Index (SI) is the ratio of CC50 in normal cells (THLE2 or PH5CH) over the CC50 in the liver cancer derived cells; thus, the higher the number, the lower the potential toxicity at an efficacious dose.

Huh7 cells = test: MTT cell viability assay, Huh7 cells, 72 h; conditions: read-out: Huh7 CC50
Description: as §1, §2

[2] = MTT cell viability assay, THLE2 cells, 72 h; conditions: human, immortalized normal hepatocytes THLE2, 72 hours, 0.016-50.0 μM tested
Description: as §1, with “THLE2 have been confirmed to not form tumors in athymic mice.” left out
as §2, §3

PH5CH cells = test: MTT cell viability assay, PH5CH cells, 72 h; conditions: immortalized normal hepatocytes PH5CH, 0.016-50.0 μM tested
Description: as §1, §2, §3

THLE2 cells = test: MTT cell viability assay, THLE2 cells, 72 h; conditions: immortalized normal hepatocytes THLE2, 72 hours, 0.016-50.0 μM tested
Description: as §1, with “THLE2 have been confirmed to not form tumors in athymic mice.” left out
as §2, §3

[3] = Homo sapiens, Huh-7, hepatocellular carcinoma derived Huh7 cells, 72 hours, MTT, 0.016-50.0 μM tested

SMILES	CC50 at 72 h [1] [µM]	CC50 (Huh7 cells; [3]) [µM]	CC50 at 72 h [2] [µM]	CC50 (Huh7 cells; Homo sapiens, Huh-7, 72 h) [µM]	CC50 (PH5CH cells) [µM]	CC50 (Huh7 cells; hepatocellular carcinoma derived Huh7 cells, 72 hours, MTT, 0.016-50.0 μM tested) [µM]	CC50 (THLE2 cells) [µM]
c1ccc(-c2csc(Nc3ncccn3)n2)nc1 [Entry 1]	≥ 50	1.39	40	–	–	–	–
c1ccc(-c2csc(Nc3ncccn3)n2)cc1 [Entry 3]	–	6.43	9.16	–	–	–	–
c1cnc(Nc2nc(-c3cccnc3)cs2)nc1 [Entry 4]	–	6.3	8.66	–	–	–	–
c1cnc(Nc2nc(-c3ccncc3)cs2)nc1 [Entry 5]	–	14.2	48.5	–	–	–	–
c1ccc(Nc2nc(-c3ccccn3)cs2)cc1 [Entry 6]	–	6.53	–	–	–	–	–
c1ccc(Nc2nc(-c3ccccc3)cs2)cc1 [Entry 7]	–	10.3	21.1	–	–	–	–
Cc1ccnc(-c2csc(Nc3ncccn3)n2)c1 [Entry 8]	34	0.563	14	–	–	–	–
Brc1sc(Nc2ncccn2)nc1-c1ccccn1 [Entry 9]	–	2.53	29.9	–	–	–	–
Brc1cccc(-c2csc(Nc3ncccn3)n2)n1 [Entry 10]	–	7.82	9.75	–	–	–	–
c1ccc(-c2csc(Nc3cnccn3)n2)nc1 [Entry 11]	–	5	0.539	–	–	–	–
c1ccc(-c2csc(Nc3ccncn3)n2)nc1 [Entry 12]	–	3.05	4.47	–	–	–	–
Clc1cnc(Nc2nc(-c3ccccn3)cs2)nc1 [Entry 13]	–	35	≥ 50	–	–	–	–
Brc1cnc(Nc2nc(-c3ccccn3)cs2)nc1 [Entry 14]	–	31.8	41	–	–	–	–
CN(c1ncccn1)c1nc(-c2ccccn2)cs1 [Entry 15]	49.7	5.32	49.1	–	–	–	–
CC(C)N(c1ncccn1)c1nc(-c2ccccn2)cs1 [Entry 16]	≥ 50	–	≥ 50	25.7	–	–	–
OCCN(c1ncccn1)c1nc(-c2ccccn2)cs1 [Entry 17]	≥ 50	48.9	≥ 50	–	–	–	–
c1ccc(CN(c2ncccn2)c2nc(-c3ccccn3)cs2)cc1 [Entry 18]	46.9	≥ 50	49.8	–	–	–	–
CCOC(=O)c1sc(Nc2ncccn2)nc1-c1ccccn1 [Entry 19]	44	0.362	38.7	–	–	–	–
OCc1sc(Nc2ncccn2)nc1-c1ccccn1 [Entry 20]	46.9	11.3	31.1	–	–	–	–
CCc1sc(Nc2ncccn2)nc1-c1ccccn1 [Entry 21]	44.1	15.4	24.7	–	–	–	–
Cc1sc(Nc2ncccn2)nc1-c1ccccn1 [Entry 22]	42	5.92	42.9	–	–	–	–
Cc1ccc2nc(Nc3nc(-c4ccccn4)cs3)sc2c1 [Entry 23]	3.97	4.92	3.96	–	–	–	–
CC(C)c1sc(Nc2ncccn2)nc1-c1ccccn1 [Entry 24]	≥ 50	–	≥ 50	11.3	–	–	–

SMILES	CC50 at 72 h [1] [µM]	CC50 (Huh7 cells; [3]) [µM]	CC50 at 72 h [2] [µM]	CC50 (Huh7 cells; Homo sapiens, Huh-7, 72 h) [µM]	CC50 (PH5CH cells) [µM]	CC50 (Huh7 cells; hepatocellular carcinoma derived Huh7 cells, 72 hours, MTT, 0.016-50.0 μM tested) [µM]	CC50 (THLE2 cells) [µM]
CCCCCc1sc(Nc2ncccn2)nc1-c1ccccn1 [Entry 25]	≥ 50	25.9	≥ 50	–	–	–	–
Cc1cnc(-c2csc(Nc3ncccn3)n2)c(C)c1 [Entry 27]	47.6	2.74	2.23	–	–	–	–
Oc1cccc(-c2csc(Nc3ncccn3)n2)n1 [Entry 28]	≥ 50	46.2	≥ 50	–	–	–	–
N#Cc1sc(Nc2ncccn2)nc1-c1ccccn1 [Entry 29]	–	–	–	–	≥ 50	≤ 0.016	≥ 50
Cc1ccnc(Nc2nc(-c3ccccn3)cs2)n1 [Entry 30]	≥ 50	≥ 50	≥ 50	–	–	–	–
CCOC(=O)c1sc(Nc2nccc(C)n2)nc1-c1ccccn1 [Entry 31]	≥ 50	≤ 0.016	≥ 50	–	–	–	–
c1cnc(Nc2nc(-c3ccc4ccccc4n3)cs2)nc1 [Entry 32]	≥ 50	≥ 50	8.02	–	–	–	–
c1ccc(-c2nc(Nc3ncccn3)sc2C2CCCCC2)nc1 [Entry 33]	≥ 50	≥ 50	3.54	–	–	–	–
FC(F)(F)c1ccnc(Nc2nc(-c3ccccn3)cs2)n1 [Entry 34]	≥ 50	26.6	37.8	–	–	–	–
CCOC(=O)c1sc(Nc2ncccn2)nc1-c1cc(C)ccn1 [Entry 35]	39.2	4.72	37.2	–	–	–	–
CCOC(=O)c1sc(Nc2ncccn2)nc1-c1cccc(C)n1 [Entry 36]	≥ 50	≥ 50	≥ 50	–	–	–	–
O=C(NCc1ccccc1)c1sc(Nc2ncccn2)nc1-c1ccccn1 [Entry 37]	31.5	17.7	≥ 50	–	–	–	–
COC(=O)c1sc(Nc2ncccn2)nc1-c1ccccn1 [Entry 38]	38.6	1.25	29.4	–	–	–	–
CNC(=O)c1sc(Nc2ncccn2)nc1-c1ccccn1 [Entry 39]	2.89	13	10.3	–	–	–	–
CN(Cc1cnc2nc(N)nc(N)c2n1)c1ccc(C(=O)NC(CCC(=O)NCCOCCOCCOCCOCCOCCNC(=O)c2sc(Nc3ncccn3)nc2-c2ccccn2)C(=O)OC(C)(C)C)cc1 (stereo not drawn) [Entry 40]	≥ 50	34.8	≥ 50	–	–	–	–
NC(=O)c1sc(Nc2ncccn2)nc1-c1ccccn1 [Entry 41]	≥ 50	≥ 50	26.6	–	–	–	–
CC(=O)OCc1sc(Nc2ncccn2)nc1-c1ccccn1 [Entry 42]	≥ 50	39.3	≥ 50	–	–	–	–
CCCC(=O)OCc1sc(Nc2ncccn2)nc1-c1ccccn1 [Entry 43]	≥ 50	11	≥ 50	–	–	–	–
CC(C)(C)OC(=O)c1sc(N(c2ncccn2)C(C)(C)C)nc1-c1ccccn1 [Entry 44]	≥ 50	–	≥ 50	20.5	–	–	–
Oc1cccc(Nc2nc(-c3ccccc3)cs2)c1 [Entry 45]	–	8	≥ 50	–	–	–	–
Cc1c(Cl)cccc1Nc1nc(-c2ccccn2)cs1 [Entry 46]	–	3.5	–	–	–	–	–
N#Cc1sc(Nc2ncccn2)nc1-c1ccccn1 [Entry 47]	≥ 50	≤ 0.016	≥ 50	–	–	–	–
